Experiment: Human HepG2 cell viability assay in 384 well format
Format: toxicity, cell-based
Set-up: dose 125 nL, time 70.5 hour; cytotoxicity at 70.5 h: concentration not given beside the values
Conditions: HepG2 cells, read-out: Inhibition

Structure (SMILES)	cytotoxicity at 70.5 h [%]
CS(=O)(=O)CCN1CCC2(CCCN(C3CCOCC3)C2=O)C1 (configuration not stated)	-5.34
Cc1ccnc(OC[C@]23COC[C@H]2CN(C(=O)c2ccnn2C)C3)n1	-8.86
Cc1ccccc1N1CCCN(C(=O)CCc2ccncc2)CC1	-9.24
COCC1CN(C(=O)Cc2cccs2)Cc2nnn(CC3CC3)c21 (configuration not stated)	2.3
CCc1cccc(OC2CN(C(=O)[C@@H](N)CCSC)C2)c1	-1.91
Cc1nn(C)c(N2CCOCC2)c1CNCC1CCCN1C (configuration not stated)	-5.73
CC(C)C1CN(S(=O)(=O)N(C)C)CCCN1Cc1ccc(F)cc1 (configuration not stated)	2.12
O=C(c1ccccc1)N1CCN(CC(O)c2ccc(F)cc2)CC1 (configuration not stated)	-11
CCc1[nH]c2c(CNC(=O)C3CCCN(C)C3)cc(C)cc2c1C (configuration not stated)	-4.96
CC(C)C(=O)NCCc1cc2nc(-c3ccncc3)ccn2n1	-6.71
CC(C)c1cc(CN(C)C(=O)CN2CCNC2=O)no1	18.6
COc1cccc(-c2cc(C(=O)NCCCn3nc(C)cc3C)[nH]n2)c1	-1.83
O=C(c1ccnc(-n2cnnc2)c1)N1CCCC2(CCNC2)C1 (configuration not stated)	-9.32
O=C(N1CCCC1)N1CCC2(CC(=O)N(c3ccc4c(c3)OCO4)C2)C1 (configuration not stated)	-2.04
CCCc1c(C(=O)N2CCN(c3nccc(OC)n3)CC2)cnn1C	-5.72
Cc1ccc(N2CCO[C@H]3CN(C(=O)c4cccc(C)n4)C[C@H]32)nn1	-9.8
Cc1nc(-c2ccccc2)n(CC(=O)NC(C2CC2)C2CC2)n1	-4.87
CC(C)Cc1ncc2c(n1)CN(c1nccc(NC(C)C)n1)C2	2.52
NC(=O)c1ccc2c(c1)nc1n2CCN(Cc2cccnc2)C1	-1.68
O=C(Nc1cn[nH]c1)c1ccncc1	4.52
COCCN1CCC(CN(CC2CCCO2)C(=O)C2CCOCC2)CC1 (configuration not stated)	-5.33
Cc1ccc(CN2Cc3nnn(C)c3C(COCC3CC3)C2)o1 (configuration not stated)	-5.52
Cc1cc(CN2CCN(C(=O)NC(C)Cn3ccnc3)CC2)on1 (configuration not stated)	29.6

Structure (SMILES)	cytotoxicity at 70.5 h [%]
CC(C)(C)CN1CCCC12CCN(S(=O)(=O)c1ccccc1)C2 (configuration not stated)	-2.83
Cc1csc(N2CCCN(C(=O)C3(C#N)CCCCC3)CC2)n1	-9.35
O=C1CC[C@H]2[C@H](CCN2C(=O)C2CCCO2)N1Cc1ccncc1 (some centres not stated)	7.56
CN(C)C(=O)CN1CCCc2c(F)cc(Br)cc21	-2.61
CC(C)NC(=O)N1CCC2(CC1)Cc1ccccc1CN(C)C2=O	-2.79
Cc1nc2c(c(NCC(=O)NC(C)C)n1)Cc1ccccc1OC2	-2.23
Cc1ccc(-c2cc(CNC(=O)N3CCOC(C)C3)on2)cc1 (configuration not stated)	-6.72
O=C(Nc1cccnc1)C1CCCN(c2cc(-n3cccn3)ncn2)C1 (configuration not stated)	4.07
CNC(=O)N1CCN(C(=O)C(C)C)CC2(CC(=O)N(C)C2)C1 (configuration not stated)	-5.77
CCc1ncc(C(=O)N2CC(N3CCCCC3)C2)cn1	25.6
O=C(c1ccc2c(c1)COC2)N1CCN(CC2CC2)CC1	-7.78
CC(C)N1CCC(CC(=O)NCc2cc(O)ncn2)CC1	-2.08
Cc1ccc(CNC(C)c2ccc(OCC(=O)NC3CC3)cc2)o1 (configuration not stated)	-1.22
CN(C(=O)CSc1ncc[nH]1)c1ccccc1	31.6
Cc1cnn(CC2CCCN2C(=O)c2cc3ccccc3c(=O)[nH]2)c1 (configuration not stated)	-12.3
Cc1ccc(C)c(C(NC(=O)C(C)(C)C)c2cccnc2)c1 (configuration not stated)	-4.24
c1ccc(O[C@@H]2CN(Cc3nccs3)[C@@H]3CCCO[C@@H]32)nc1	1.57
O=C(CCC(=O)c1cccs1)NC1(C(=O)NCC2CC2)CCCC1	-1.16
CNCC(=O)NC1CC(C)(C)Cc2nc(C(C)(C)C)ncc21 (configuration not stated)	-18.9
c1csc(N2CCN(c3nccn4cnnc34)CC2)n1	-3.57
CC(C(=O)NCCc1cccs1)N1CCC(n2ccnc2)CC1 (configuration not stated)	-1.16
Cc1nc2c(c(C)c1CC(=O)NCc1ccco1)c(=O)[nH]n2C	-3.09
CN(C)Cc1ccc(C(=O)N2CCCC(COc3ccc(F)cc3)C2)o1 (configuration not stated)	-5.29

Structure (SMILES)	cytotoxicity at 70.5 h [%]
CNC(=O)c1cc2c(nc1NC(C)C)CCN(C(=O)NC(C)C)CC2	-10.9
CCCn1cc(-c2cc(-c3cnc(OC)nc3)c(C#N)c(N)n2)c(C)n1	-7.45
CCOc1cc(C)nc(N2CCN(C(=O)c3cc(Cl)c[nH]3)CC2)n1	-8.74
CCC(C)N1CCc2c(C(=O)N3CCOCC3)n[nH]c2C1 (configuration not stated)	-3.05
CC(C)c1cc(NCC(O)c2ccncc2)n2nccc2n1 (configuration not stated)	14.4
Cn1cccc1C(=O)N1CCC2(CCN(C(=O)c3cccnc3)C2)CC1	3.23
c1ccc(O[C@@H]2CC[C@H]3[C@H]2OCCN3Cc2ccsc2)nc1	8.42
Cc1noc(C)c1CN1CCn2c(CN3CCN(C)CC3)cnc2C1	-14.6
CCc1nnc2n1CCN(C(=O)CN(C)C1CC1)C2	-0.0438
COc1ccc(Cl)cc1NC(=O)N(C)CC(O)COCCOC(C)C (configuration not stated)	-4.88
COCCCS(=O)(=O)N1CCN(c2cccc(O)c2)CC1	-6.99
CCOC(=O)CCCc1ccc2c(c1)CC(=O)N2	-18.2
Cc1nc(C2CCNCC2)cc(N(C)CCc2cn[nH]c2)n1	-3.08
CC(C)N1CCc2c(C(=O)N3CCOCC3)nn(C)c2C1	0.371
c1cncc(-c2nnn3c2COCC(CNC2CCOCC2)C3)c1 (configuration not stated)	12.3
CC(C)c1nccn1-c1nccnc1C1CCCN1Cc1ccccc1 (configuration not stated)	-6.32
CCS(=O)(=O)N(C)C1CCN(C(=O)c2cc(C)cc(C)c2)CC1	-14.2
Cc1cc(C(=O)NC2CCN(c3ncccc3C#N)CC2)no1	-2.85
CC(C)c1ccc(N2CCc3onc(-c4ccc(F)c(F)c4)c3C2)nn1	-6.74
COc1cccc2c3c(c(=O)[nH]c12)CC(C)(C)O3	-6.98
Cc1ccccc1C1CCCN1Cc1ccc(S(=O)(=O)N(C)C)o1 (configuration not stated)	-2.87
Cc1ccc(NC(=O)C2CSCN2C(=O)c2cc[nH]n2)c(C)c1 (configuration not stated)	-2.12
COc1cccc(OC2CN(C(=O)Cn3nc4ccccc4n3)C2)c1	-5.28

Structure (SMILES)	cytotoxicity at 70.5 h [%]
O=C(c1cnccn1)N1CCN2C[C@H](Oc3cccnc3)C[C@H]2C1	4.06
CCc1cc(NCc2cccnc2N2CCCCC2)n2ncnc2n1	0.666
Cn1ccc(C(=O)NC2CCC23CCN(C(=O)C2CCOCC2)CC3)c1 (configuration not stated)	-4.15
CO[C@H]1CN(Cc2ccc(F)c(F)c2)C[C@@]12CCCO2	-2.35
N#Cc1ccccc1N1CCN(C(=O)NCCN2CCOCC2)CC1	0.377
CC(NCc1cnc(C2CCC2)s1)c1ccc(-n2cccn2)cc1 (configuration not stated)	-8.33
Cc1nc(C)c(C(=O)N2Cc3cc(F)ccc3CC2C)o1 (configuration not stated)	-3.47
Cc1cnn(C2CN(CC(=O)NCc3ccccn3)C2)c1	16.5
Cc1occc1C(=O)N1C[C@@H]2CCCO[C@@H]2[C@H](NC(=O)CC2CC2)C1	-7.56
COc1ccccc1OCCc1cc(C2CCNC2)n[nH]1 (configuration not stated)	-6.36
Cc1noc(C)c1CN(C)C(=O)C1(NS(C)(=O)=O)CCCCC1	-0.856
COc1ccccc1OCc1cc(C(=O)N2[C@H](C)CC[C@@H]2C)n[nH]1	-6.18
CCc1nnc(C(C)N2CCN(CCC(=O)NC3CC3)CC2)o1 (configuration not stated)	22
CN(CCc1ccccn1)C(=O)c1cccs1	-2.46
COc1cc(N2C[C@H](C(=O)NCC3CC3)[C@@H]3CCO[C@@H]3C2)ncn1	-11.6
COc1cc(-c2cc(OC)c(OC)c(OC)c2)ncn1	-6.68
Cc1cccc(C(=O)N2CCc3c(COCC4CC4)cncc3C2)n1	-10.4
Cc1cccc(COC[C@@H]2CC[C@H]3[C@H](CCN3Cc3ccco3)O2)n1	-6.18
N#Cc1c(F)cccc1N1CCN(S(=O)(=O)c2cccs2)CC1	8.47
Cc1ccc(C(CNC(=O)Cc2nc3ncccn3n2)N(C)C)cc1 (configuration not stated)	-10.7
CN1CCN(C(=O)NCCc2ccc(F)cc2)[C@H]2CS(=O)(=O)C[C@H]21	-2.69
COCCOC(=O)N1CCn2nc(CN(C)Cc3nccs3)cc2C1	13.8
Cc1ccc(CN(C)C(=O)NCC(=O)NC(C)(C)C)s1	-3.18

Structure (SMILES)	cytotoxicity at 70.5 h [%]
CC(C)[C@H](N)C(=O)N1CCCC(C2=Nc3ccccc3S(=O)(=O)N2)C1 (some centres not stated)	-9.78
CN(Cc1ccncc1)C(=O)c1ccc(F)c(NS(C)(=O)=O)c1	-4.24
COc1ncc(C2(O)CCN(Cc3c(F)cccc3F)CC2)c(OC)n1	31.4
Oc1ccccc1CN1CCCCCC1c1cccs1 (configuration not stated)	-5.04
CC(NCc1cnc(C2CCC2)s1)c1ccccc1-n1cccn1 (configuration not stated)	-3.26
Cc1cnn(CC2CCCCN2C(=O)c2n[nH]c3ccccc23)c1 (configuration not stated)	16
Cc1ccc(CN2CCCn3cnc(COCC4CC4)c3C2)o1	-1.19
CN(CCC#N)C(=O)Cc1csc(-c2ncccn2)n1	-3.29
Cc1nc(C(=O)N2CCN(C(C)c3ccccc3F)CC2)cs1 (configuration not stated)	-1.44
CC(=O)N1CCCC1c1nnc2n1CCCCC2 (configuration not stated)	2.96
O=C(Nc1cccnn1)NC(CCCO)c1ccccc1 (configuration not stated)	-14.5
O=C(NCCOc1ccc(Cl)cn1)Nc1cccnc1	-0.774
Cc1cccc(C(=O)NCc2ccc(N3CCCCC3)nc2)n1	-3.76
CC1CCN(CC(O)CNc2ccc(Cl)cn2)CC1 (configuration not stated)	-1.66
Cc1ccc(C(C)N(C)CCS(=O)(=O)CCC(N)=O)cc1 (configuration not stated)	-6.4
CC(Cn1ccnc1)NC(=O)N1CCN(Cc2ccco2)CC1 (configuration not stated)	0.365
O=C(CCS(=O)(=O)C1CCCC1)NCc1ccccc1Cn1cncn1	-11
Cc1noc([C@H]2C[C@@H]3CCN(CC4CCOCC4)C[C@H]3O2)n1	-1.09
CN1CC(c2n[nH]c(=O)n2-c2cccc(Cl)c2)CC1=O (configuration not stated)	-12.8
CCc1nc2c(c(NCc3cc(-c4cccnc4)no3)n1)CCNCC2	7.07

From ChEMBL document CHEMBL3507680, “University of Dundee, Gates Library screen for HepG2 cell viability”
